From patent publication US8183204B2, “Methods and compositions for increasing skin remodeling” (Summit Associates International Inc., priority 2000, dated 2012)
Where no end group is shown, it is not given here.

Each molecule was assayed on surgical incisions on the backs of Swiss-Webster mice (assay: Scar formation after surgical incisions, synthetic peptide-metal complexes injected along the incision line). Settings: 10 mice each; 1 mg/ml in 0.85% saline, 0.02 ml injected at four sites on each side of incision, immediately after surgery and 24 hours later; rated 0 to 4 (heavy scarring); untreated control 3.6.
Type: in vivo
Protocol: This Example describes the use of a synthetic peptides complexed with cupric chloride or Tin(II) chloride to reduce post-surgical scarring.
Peptide-copper complexes were dissolved in 0.85% saline at a concentration of 1 milligram per milliliter.
Surgical incisions (1.25 cm) were made on the backs of anesthetized, 35 gram, Swiss-Webster mice. Immediately after surgery and 24 hours later, the 0.02 ml of the peptide complexes were injected at four sites on each side of the incision line. Control wounds were untreated.
For comparison, the amount of scar formation was rated from 0 (little or no scarring) to 4 (heavy scarring).

Ala-Gly-His-Copper(II) and Ala-Gly-His-Tin(II) are the same in “Scar Formation score (5 days)” value: 0.3 ± 0.1 for the first, 0.3 ± 0.1 for the second.

First: Cysteine sulfinic acid-Copper(II) [reference compound]
Second: Gly-Cys-Gly-Copper(II)
The “Scar Formation score (5 days)” value of the first is higher: 2.9 ± 0.5 for the first, 1.4 ± 0.3 for the second.

Gly-Gly-Gly-Copper(II) and Gly-Gly-His-Copper(II) are within error of each other in “Scar Formation score (5 days)” value: 0.5 ± 0.3 for the first, 0.3 ± 0.2 for the second.

Gly-His-Lys-Copper(II) and “Gly-His-Lys-His-Copper(II) (GHKH; also: copper(II) complex)” are within error of each other in “Scar Formation score (5 days)” value: 0.2 ± 0.1 for the first, 0.4 ± 0.2 for the second.

“Gly-His-Lys-His-Tin(II) (GHKH; also: tin(II) complex)” and Gly-His-Lys-Tin(II) are the same in “Scar Formation score (5 days)” value: 0.4 ± 0.2 for the first, 0.4 ± 0.1 for the second.

His-Gly-Gly-Copper(II) and His-Gly-Gly-Tin(II) are within error of each other in “Scar Formation score (5 days)” value: 0.5 ± 0.2 for the first, 0.4 ± 0.2 for the second.

In the case of Phe-Phe-Copper(II), the “Scar Formation score (5 days)” value is reported as 0.5 ± 0.3.

Same assay, conditions: mice, injection along incision line

For `N[C@@H](CS(=O)(=O)O)C(=O)O.[Cu+2]` [Cysteic acid-Copper(II), reference compound], the “post-surgical scar formation compared with control wounds (in words)” value was “much less active”.
For `N[C@@H](CCS(=O)(=O)O)C(=O)O.[Cu+2]` [Homocysteic acid-Copper(II), reference compound], the “post-surgical scar formation compared with control wounds (in words)” value was “much less active”.
In the case of “Cysteine sulfinic acid-Copper(II) [reference compound]”, the “post-surgical scar formation compared with control wounds (in words)” value is reported as “much less active”.
